Values after ≈ are worked out from the molar mass of the structure shown.
Assays:
Botrytis cinerea [1] = experiment: In vitro volatile assay (Example 24); format: cell-based; conditions: 72 h, headspace, 100% control, 3 days at 23 C, read-out: Volatile MIC (mg/L) B. cinerea
Method: (§1) Volatile assay: 12-well (6.5 mL volume per well) microtiter plates are used. A 3-mL volume of half strength PDA is added to each well. […] A Whatman #1 filter disk (Cat. No. 1001-0155) is placed, in duplicate, on the underside of a polyethylene PCR plate sealing film. […] The acetone is permitted to evaporate for 5 minutes. The headspace around the inoculum is then sealed inside the well by the film with the adhering disk containing the fungicide. Plates are inverted, placed over the treated disks, and sealed to prevent any of the chemical from flaking from the disk and falling onto the inoculated agar. […] Contact assay: 6-well (16.5 mL volume per well) microtiter plates are used for an in vitro inhibition assay. […] A 7.5-mL volume of the amended media is added to each well of the microtiter plate. […] The plates are sealed with a clear film and incubated for 3 days at 23° C. After incubation, plates are evaluate for percent growth relative to acetone only control.

Penicillium expansum [2] = experiment: In vitro volatile assay (Example 24); format: cell-based; conditions: 72 h, headspace, 100% control, 3 days at 23 C, read-out: Volatile MIC (mg/L) P. expansum
Method: as §1

Penicillium expansum [3] = experiment: Blue mold on apple and pear, volatile assay (Example 25); conditions: 50 mg/L, day 3 at 21 C after 5 days at 1 C
Method: Two apples, pears or oranges are placed in a clamshell, and three fresh wounds are made near the equatorial region of each fruit. Each fruit wound is then inoculated with 20 μL of 1×10^6 spores per mL of Penicillium expansum or digitatum suspension, respectively. The inoculum is allowed to dry for two hours prior to treatment application as a volatile or contact.
Volatile Assay: Clamshells are then placed at the bottom of a 2.55-L SnapWare airtight container (Model #109842). […] The solutions are pipetted into Whatman filter disks mounted to the inside lid of the container. The chambers are then incubated at 1° C. for 5 days, removed to 21° C., and evaluated on day 3 by determining the diameter (mm) of rot development (browning) or sporulation.

Botrytis cinerea [4] = experiment: Dose response, sprayed clamshells; strawberries (Example 4); format: in vivo; conditions: spraying
Method: Five milligrams of Compound A was dissolved in 1 ml of ethanol prior to being uniformly administered to the interior of the clamshell by painting or spraying, and then dried for 5 minutes. After coating the clamshells with Compound A using various application techniques (i.e., sublimation, spraying, or painting), eight ethanol-washed strawberries were placed in the clamshell with stem end facing downwards. Each strawberry fruit was wounded using a T15 screwdriver tip to a uniform depth of eight mm (8 mm). […] Uninoculated strawberries were removed from their commercial package, and directly transferred into treated clamshells without any washing or inoculation steps.
Treated clamshells lids were closed, and then placed at 1° C. for an initial time period of 5 days. Clamshells were then removed from low temperature, and held for a second time period of 6 days at room temperature where the point of inoculation on the strawberry fruits was assessed for indication of disease incidence reported as a percentage (%). Severity of disease incidence was also reported.
This in vivo assay was used to evaluate the ability of different concentrations of Compound A to volatilize from clamshell in order to control or inhibit fruit infection by pathogenic microorganism, Botrytis cinerea. This experiment was conducted exactly as described in Example 1, with a few exceptions. After equilibrating the clamshell overnight at 21° C., Compound A was administered to the clamshells by spraying only. Compound A was sprayed onto the surface of the clamshells at a final treatment rate of 5 mg/clamshell or 1 mg/clamshell. The clamshells were then permitted to dry for 5 minutes. Strawberries were inoculated with Botrytis cinerea, placed within the clamshells for the initial time period (i.e., 5 days), and assessed for disease incidence and severity over the second time period (i.e., 6 days) as described in Example 1.

[5] = tested on: Trichophyton mentagrophytes; experiment: In vitro contact assay (Example 26); format: cell-based; conditions: Trichophyton mentagrophytes, 120 h, 5 days at 28 C, 100% control, read-out: MIC (mg/L) Trichophyton mentagrophytes
Method: (§2) Half-strength Potato Dextrose Agar (PDA) is amended with a mixture of one of the test compounds in acetone or methanol to a final concentration of 50, 10, 2, 0.4 or 0.08 mg/L. A 3-mL volume of the amended media is added to each well of the microtiter plate. […] The plates are sealed with a clear film and incubated inverted for 5 days at 28° C.

Epidermophyton floccus = experiment: In vitro contact assay (Example 26); format: cell-based; conditions: Epidermophyton, 120 h, 5 days at 28 C, 100% control, read-out: MIC (mg/L) Epidermophyton floccus
Method: as §2

Trichophyton rubrum = experiment: In vitro contact assay (Example 26); format: cell-based; conditions: Trichophyton rubrum, 120 h, 5 days at 28 C, 100% control, read-out: MIC (mg/L) Trichophyton rubrum
Method: as §2

[6] = Inoculated Fruit, 1 mg/clamshell, Day 0
[7] = Inoculated Fruit, 1 mg/clamshell, Day 1
[8] = Inoculated Fruit, 1 mg/clamshell, Day 2
[9] = Inoculated Fruit, 1 mg/clamshell, Day 3
[10] = Inoculated Fruit, 1 mg/clamshell, Day 4
[11] = Inoculated Fruit, 1 mg/clamshell, Day 5
[12] = Inoculated Fruit, 1 mg/clamshell, Day 6
[13] = Inoculated Fruit, 5 mg/clamshell, Day 0
[14] = Inoculated Fruit, 5 mg/clamshell, Day 1
[15] = Inoculated Fruit, 5 mg/clamshell, Day 2
[16] = Inoculated Fruit, 5 mg/clamshell, Day 3
[17] = Inoculated Fruit, 5 mg/clamshell, Day 4
[18] = Inoculated Fruit, 5 mg/clamshell, Day 5
[19] = Inoculated Fruit, 5 mg/clamshell, Day 6
[20] = Uninoculated Fruit, 5 mg/clamshell, Day 0
[21] = Uninoculated Fruit, 5 mg/clamshell, Day 1
[22] = Uninoculated Fruit, 5 mg/clamshell, Day 2
[23] = Uninoculated Fruit, 5 mg/clamshell, Day 6

SMILES: OB1OCc2cc(F)ccc21 [Compound A, 5-fluoro-1,3-dihydro-1-hydroxy-2,1-benzoxaborole]
- MIC (Botrytis cinerea [1]): 0.3 mg/L (≈ 1.97 µM)
- MIC (Penicillium expansum [2]): 2.2 mg/L (≈ 14.5 µM)
- Apple Browning (mm) (Penicillium expansum [3]): 0.4 mm
- Apple Sporulation (mm) (Penicillium expansum [3]): 0.0 mm
- Pear Browning (mm) (Penicillium expansum [3]): 5.7 mm
- Pear Sporulation (mm) (Penicillium expansum [3]): 0.0 mm
- Gray Mold Incidence (%) (Botrytis cinerea [4]; [6]): 0.0%
- Gray Mold Severity (0-4) (Botrytis cinerea [4]; [6]): 0.0
- Gray Mold Incidence (%) (Botrytis cinerea [4]; [7]): 0.0%
- Gray Mold Severity (0-4) (Botrytis cinerea [4]; [7]): 0.0
- Gray Mold Incidence (%) (Botrytis cinerea [4]; [8]): 1.3%
- Gray Mold Severity (0-4) (Botrytis cinerea [4]; [8]): 0.0
- Gray Mold Incidence (%) (Botrytis cinerea [4]; [9]): 3.8%
- Gray Mold Severity (0-4) (Botrytis cinerea [4]; [9]): 0.1
- Gray Mold Incidence (%) (Botrytis cinerea [4]; [10]): 11.3%
- Gray Mold Severity (0-4) (Botrytis cinerea [4]; [10]): 0.2
- Gray Mold Incidence (%) (Botrytis cinerea [4]; [11]): 36.3%
- Gray Mold Severity (0-4) (Botrytis cinerea [4]; [11]): 0.6
- Gray Mold Incidence (%) (Botrytis cinerea [4]; [12]): 52.5%
- Gray Mold Severity (0-4) (Botrytis cinerea [4]; [12]): 1.5
- Gray Mold Incidence (%) (Botrytis cinerea [4]; [13]): 0.0%
- Gray Mold Severity (0-4) (Botrytis cinerea [4]; [13]): 0.0
- Gray Mold Incidence (%) (Botrytis cinerea [4]; [14]): 0.0%
- Gray Mold Severity (0-4) (Botrytis cinerea [4]; [14]): 0.0
- Gray Mold Incidence (%) (Botrytis cinerea [4]; [15]): 0.0%
- Gray Mold Severity (0-4) (Botrytis cinerea [4]; [15]): 0.0
- Gray Mold Incidence (%) (Botrytis cinerea [4]; [16]): 0.0%
- Gray Mold Severity (0-4) (Botrytis cinerea [4]; [16]): 0.0
- Gray Mold Incidence (%) (Botrytis cinerea [4]; [17]): 0.0%
- Gray Mold Severity (0-4) (Botrytis cinerea [4]; [17]): 0.0
- Gray Mold Incidence (%) (Botrytis cinerea [4]; [18]): 0.0%
- Gray Mold Severity (0-4) (Botrytis cinerea [4]; [18]): 0.0
- Gray Mold Incidence (%) (Botrytis cinerea [4]; [19]): 0.0%
- Gray Mold Severity (0-4) (Botrytis cinerea [4]; [19]): 0.0
- Gray Mold Incidence (%) (Botrytis cinerea [4]; Uninoculated Fruit, 1 mg/clamshell, Day 0): 0.0%
- Gray Mold Incidence (%) (Botrytis cinerea [4]; Uninoculated Fruit, 1 mg/clamshell, Day 1): 1.9%
- Gray Mold Incidence (%) (Botrytis cinerea [4]; Uninoculated Fruit, 1 mg/clamshell, Day 2): 21.6%
- Gray Mold Incidence (%) (Botrytis cinerea [4]; Uninoculated Fruit, 1 mg/clamshell, Day 3): 89.5%
- Gray Mold Incidence (%) (Botrytis cinerea [4]; Uninoculated Fruit, 1 mg/clamshell, Day 4): 100.0%
- Gray Mold Incidence (%) (Botrytis cinerea [4]; Uninoculated Fruit, 1 mg/clamshell, Day 5): 100.0%
- Gray Mold Incidence (%) (Botrytis cinerea [4]; Uninoculated Fruit, 1 mg/clamshell, Day 6): 100.0%
- Gray Mold Incidence (%) (Botrytis cinerea [4]; [20]): 0.5%
- Gray Mold Severity (0-4) (Botrytis cinerea [4]; [20]): 0.1
- Gray Mold Incidence (%) (Botrytis cinerea [4]; [21]): 0.5%
- Gray Mold Severity (0-4) (Botrytis cinerea [4]; [21]): 0.1
- Gray Mold Incidence (%) (Botrytis cinerea [4]; [22]): 0.9%
- Gray Mold Severity (0-4) (Botrytis cinerea [4]; [22]): 0.3
- Gray Mold Incidence (%) (Botrytis cinerea [4]; Uninoculated Fruit, 5 mg/clamshell, Day 3): 3.3%
- Gray Mold Incidence (%) (Botrytis cinerea [4]; Uninoculated Fruit, 5 mg/clamshell, Day 4): 16.2%
- Gray Mold Incidence (%) (Botrytis cinerea [4]; Uninoculated Fruit, 5 mg/clamshell, Day 5): 31.9%
- Gray Mold Incidence (%) (Botrytis cinerea [4]; [23]): 78.5%
- Gray Mold Severity (0-4) (Botrytis cinerea [4]; [23]): 3.5
- MIC [5]: 2 mg/L (≈ 13.2 µM)
- MIC (Epidermophyton floccus): 2 mg/L (≈ 13.2 µM)
- MIC (Trichophyton rubrum): 2 mg/L (≈ 13.2 µM)

— patent US12329158B2, “Large-scale methods of uniformly coating packaging surfaces with a volatile antimicrobial to preserve food freshness” (AGROFRESH INC., priority 2013, dated 2025)
